Measurements from patent publication US6407288B1, “Naphthylsalicylanilides as antimicrobial and antiinflammatory agents” (The Research Foundation of State University of New York, priority 2000, dated 2002).
Values after ≈ are worked out from the molar mass of the structure shown.

Assays:
Pg 53977 = experiment: MIC microdilution, gram negative; type: cell-based, Porphyromonas gingivalis; conditions: for MIC: Porphyromonas gingivalis, 53977, Table 3, Gram Negative; for MIC Pg 53977: Table 3 printed a second time, Gram Negative
In short: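 Modified NCCLS broth microdilution; anaerobes grown 48-72 hrs in half-strength BHI with yeast extract, hemin and menadione, aerobes in full-strength BHI, inoculum ~1×10^8 CFU/mL (10 μL/assay). Drugs from DMSO stock, final 50 to 0.05 μg/assay, duplicate, 24 to 48 hrs (anaerobic: 5% CO2, 10% H2, N2); MIC = lowest concentration without visible growth.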

Str. pyo = experiment: Mean Streptococcus MIC; type: cell-based; conditions: Streptococcus; Table 5, mean
In short: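 Modified NCCLS broth microdilution in duplicate: 10 μL inoculum from cultures diluted to about 1×10^8 CFU/mL, drug 50 to 0.05 μg/assay diluted from DMSO stock. Full-strength BHI for aerobes, supplemented half-strength BHI under 5% CO2/10% H2/N2 for anaerobes, 24–48 h; MIC as lowest concentration without visible growth.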

| SMILES | MIC (Pg 53977) [µg/mL] | MIC Pg 53977 (Pg 53977) [micrograms/ml] | MIC (Str. pyo) [µg/mL] |
| --- | --- | --- | --- |
| CCCCc1ccc(C(=O)c2ccc(O)c(C(=O)Nc3cccc(C(F)(F)F)c3)c2)cc1 [BBAmF, reference compound] | < 0.4 | <0.4 |  |
| N#Cc1cccc(NC(=O)c2cc(C(=O)c3cccc4ccccc34)ccc2O)c1 [NA1mC] | 0.8 (≈ 2.04 µM) | 0.8 | 16.7 (≈ 42.5 µM) |
| O=C(c1ccc(-c2ccccc2)cc1)c1ccc(O)c(C(=O)Nc2cccc(C(F)(F)F)c2)c1 [BPAmF, reference compound] | < 0.4 | <0.4 |  |
| N#Cc1cccc(NC(=O)c2cc(C(=O)c3ccc(-c4ccccc4)cc3)ccc2O)c1 [BPAmC, reference compound] | < 0.4 | <0.4 |  |
| O=C(Nc1cccc(C(F)(F)F)c1)c1cc(C(=O)c2cccc3ccccc23)ccc1O [NA1mF] | < 0.1 | <0.1 | 1 (≈ 2.3 µM) |
